According to patent US10793580B2, “Substituted pyrazoloazepin-8-ones and their use as phosphodiesterase inhibitors” (LEO Pharma A/S, priority 2016, dated 2020):
Like-named read-outs stand apart in the source and are kept apart here.

Target: human PDE4D catalytic domain (Homo sapiens (Human), UniProt Q08499)
Assay: PDE4 Assay (TR-FRET, FAM-cAMP cleavage)
Assay type: biochemical
Conditions: read-out: PDE4 IC50 range
In short: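 PDE4D catalytic domain (S380-L740) incubated briefly with unlabelled cAMP plus FAM-cAMP and titrated compound. Reaction stopped with binding buffer holding metal-ion nanoparticles that bind AMP phospho groups and Tb donor, and AMP formation read by TR-FRET. IC50 versus controls, reported as ranges (nM).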

[1] = human PDE4D catalytic domain (UniProt Q08499 [S380-L740]), 50% inhibition of substrate cleavage

human PDE4D catalytic domain, sequence (Q08499 380-740): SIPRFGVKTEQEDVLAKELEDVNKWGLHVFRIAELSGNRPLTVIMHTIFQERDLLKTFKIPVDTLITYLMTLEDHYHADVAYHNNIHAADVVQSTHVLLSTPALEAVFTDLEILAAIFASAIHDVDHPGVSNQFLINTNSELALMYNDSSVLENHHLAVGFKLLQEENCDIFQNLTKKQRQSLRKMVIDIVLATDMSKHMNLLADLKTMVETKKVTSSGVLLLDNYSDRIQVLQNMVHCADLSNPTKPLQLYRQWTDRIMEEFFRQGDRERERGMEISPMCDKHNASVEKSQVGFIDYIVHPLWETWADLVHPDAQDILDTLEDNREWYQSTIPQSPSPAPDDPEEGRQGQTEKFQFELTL

SMILES | IC50 [1] [nM] | IC50 (Table 17, Examples 297-316) [nM]
CCn1nc(CCCOC(=O)c2cccc(C(=O)N3CCN(C)CC3)c2)c2c1C(=O)NCC1(CCOCC1)C2 [Example 119, 3-(1-ethyl-8-oxo-spiro[6,7-dihydro-4H-pyrazolo[3,4-c]azepine-5,4′-tetrahydropyran]-3-yl)propyl 3-(4-methylpiperazine-1-carbonyl)benzoate] | < 100 | –
CCn1nc(CCCOC(=O)c2ccc(C(F)(F)F)cc2C(F)(F)F)c2c1C(=O)NCC1(CCOCC1)C2 [Example 97, 3-(1-ethyl-8-oxo-spiro[6,7-dihydro-4H-pyrazolo[3,4-c]azepine-5,4′-tetrahydro-pyran]-3-yl)propyl 2,4-bis(trifluoromethyl)benzoate] | < 100 | –
CCn1nc(CC(C)(C)COC(=O)c2cccc(C(=O)N3CCCCC3)c2)c2c1C(=O)NCC1(CCOCC1)C2 [Example 231, [3-(1-ethyl-8-oxo-spiro[6,7-dihydro-4H-pyrazolo[3,4-c]azepine-5,4′-tetrahydro-pyran]-3-yl)-2,2-dimethyl-propyl] 3-(piperidine-1-carbonyl)benzoate] | < 100 | –
CCn1nc(CCCOC(=O)c2ccc(F)cc2OC)c2c1C(=O)NCC1(CCOCC1)C2 [Example 40, 3-(1-ethyl-8-oxo-spiro[6,7-dihydro-4H-pyrazolo[3,4-c]azepine-5,4′-tetrahydropyran]-3-yl)propyl 4-fluoro-2-methoxy-benzoate] | < 100 | –
CCn1nc(CCCOC(=O)c2cc(OC)ccc2C(F)(F)F)c2c1C(=O)NCC1(CCOCC1)C2 [Example 80, 3-(1-ethyl-8-oxo-spiro[6,7-dihydro-4H-pyrazolo[3,4-c]azepine-5,4′-tetrahydro-pyran]-3-yl)propyl 5-methoxy-2-(trifluoromethyl)benzoate] | < 100 | –
CCn1nc(CC(C)(C)COC(=O)c2ccccc2OC)c2c1C(=O)NCC1(CCOCC1)C2 [Example 198, [3-(1-ethyl-8-oxo-spiro[6,7-dihydro-4H-pyrazolo[3,4-c]azepine-5,4′-tetrahydropyran]-3-yl)-2,2-dimethyl-propyl] 2-methoxybenzoate] | < 100 | –
CCn1nc(CC(C)(C)COC(=O)c2ccc(S(=O)(=O)N3CCCC3)cc2)c2c1C(=O)NCC1(CCOCC1)C2 [Example 211, [3-(1-ethyl-8-oxo-spiro[6,7-dihydro-4H-pyrazolo[3,4-c]azepine-5,4′-tetrahydropyran]-3-yl)-2,2-dimethyl-propyl] 4-pyrrolidin-1-ylsulfonylbenzoate] | < 100 | –
CCn1nc(CCOC(=O)C2CCCC2)c2c1C(=O)NCC1(CCOCC1)C2 [Example 134, 2-(1-ethyl-8-oxo-spiro-[6,7-dihydro-4H-pyrazolo-[3,4-c]azepine-5,4′-tetra-hydropyran]-3-yl)ethyl cyclopentanecarboxylate] | < 100 | –
CCn1nc(CCCOC(=O)c2cccc(S(=O)(=O)N3CCCC3)c2)c2c1C(=O)NCC1(CCOCC1)C2 [Example 95, 3-(1-ethyl-8-oxo-spiro[6,7-dihydro-4H-pyrazolo[3,4-c]azepine-5,4′-tetrahydro-pyran]-3-yl)propyl 3-pyrro-lidin-1-ylsulfonylbenzoate] | < 100 | –
CCn1nc(C[C@@H](C)COC(=O)c2cccc(C(=O)N3CCOCC3)c2)c2c1C(=O)NCC1(CCOCC1)C2 [Example 183, [(2R)-3-(1-ethyl-8-oxo-spiro[6,7-dihydro-4H-pyrazolo[3,4-c]azepine-5,4′-tetrahydropyran]-3-yl)-2-methyl-propyl] 3-(morpholine-4-carbonyl)benzoate] | < 100 | –
CCn1nc(C[C@@H](C)COC(=O)c2ccccc2OC)c2c1C(=O)NCC1(CCOCC1)C2 [Example 151, [(2R)-3-(1-ethyl-8-oxo-spiro[6,7-dihydro-4H-pyrazolo[3,4-c]azepine-5,4′-tetrahydropyran]-3-yl)-2-methyl-propyl] 2-methoxybenzoate] | < 100 | –
CCn1nc(CCCCOC(=O)c2ccc(C(N)=O)cc2)c2c1C(=O)NCC1(CCOCC1)C2 [Example 127, 4-(1-ethyl-8-oxo-spiro[6,7-dihydro-4H-pyrazolo[3,4-c]azepine-5,4′-tetrahydropyran]-3-yl)butyl 4-carbamoylbenzoate] | < 100 | –
CCn1nc(CC(C)(C)COC(=O)c2ccc(C(C)=O)cc2)c2c1C(=O)NCC1(CCOCC1)C2 [Example 200, [3-(1-ethyl-8-oxo-spiro[6,7-dihydro-4H-pyrazolo[3,4-c]azepine-5,4′-tetrahydropyran]-3-yl)-2,2-dimethyl-propyl] 4-acetylbenzoate] | < 100 | –
CCn1nc(CC(C)(C)COC(=O)c2ccc(S(=O)(=O)C3CCCC3)cc2)c2c1C(=O)NCC1(CCOCC1)C2 [Example 209, [3-(1-ethyl-8-oxo-spiro[6,7-dihydro-4H-pyrazolo[3,4-c]azepine-5,4′-tetrahydropyran]-3-yl)-2,2-dimethyl-propyl] 4-cyclopentylsulfonylbenzoate] | < 100 | –
CCn1nc(CCCOC(=O)c2ccc(Cl)cc2OC)c2c1C(=O)NCC1(CCOCC1)C2 [Example 61, 3-(1-ethyl-8-oxo-spiro[6,7-dihydro-4H-pyrazolo[3,4-c]azepine-5,4′-tetrahydropyran]-3-yl)propyl 4-chloro-2-methoxy-benzoate] | < 100 | –
CCn1nc(CC(C)(C)COC(=O)c2cncs2)c2c1C(=O)NCC1(CCOCC1)C2 [Example 306, [3-(1-ethyl-8-oxo-spiro[6,7-dihydro-4H-pyrazolo[3,4-c]azepine-5,4′-tetrahydro-pyran]-3-yl)-2,2-dimethyl-propyl] thiazole-5-carboxylate] | – | < 100
CCn1nc(C[C@@H](C)COC(=O)CCOC)c2c1C(=O)NCC1(CCOCC1)C2 [Example 137, [(2R)-3-(1-ethyl-8-oxo-spiro[6,7-dihydro-4H-pyrazolo[3,4-c]azepine-5,4′-tetrahydropyran]-3-yl)-2-methyl-propyl] 3-methoxypropanoate] | < 100 | –
CCn1nc(C[C@@H](C)COC(=O)c2cccc(C(C)=O)c2)c2c1C(=O)NCC1(CCOCC1)C2 [Example 154, [(2R)-3-(1-ethyl-8-oxo-spiro[6,7-dihydro-4H-pyrazolo[3,4-c]azepine-5,4′-tetrahydropyran]-3-yl)-2-methyl-propyl] 3-acetylbenzoate] | < 100 | –
CCn1nc(C[C@@H](C)COC(=O)c2cccc(C)c2)c2c1C(=O)NCC1(CCOCC1)C2 [Example 142, [(2R)-3-(1-ethyl-8-oxo-spiro[6,7-dihydro-4H-pyrazolo[3,4-c]azepine-5,4′-tetrahydropyran]-3-yl)-2-methyl-propyl] 3-methylbenzoate] | < 100 | –
CCn1nc(CCCOC(=O)c2ccc(C)cc2C)c2c1C(=O)NCC1(CCOCC1)C2 [Example 14, 3-(1-ethyl-8-oxo-spiro[6,7-dihydro-4H-pyrazolo[3,4-c]azepine-5,4′-tetrahydropyran]-3-yl)propyl 2,4-dimethylbenzoate] | < 100 | –
CCn1nc(CCCOC(=O)c2cccc(OC)c2)c2c1C(=O)NCC1(CCOCC1)C2 [Example 17, 3-(1-ethyl-8-oxo-spiro[6,7-dihydro-4H-pyrazolo[3,4-c]azepine-5,4′-tetrahydropyran]-3-yl)propyl 3-methoxybenzoate] | < 100 | –
CCn1nc(CCCCOC(=O)c2ccc(C(=O)N3CCOCC3)cc2)c2c1C(=O)NCC1(CCOCC1)C2 [Example 133, 4-(1-ethyl-8-oxo-spiro[6,7-dihydro-4H-pyrazolo[3,4-c]azepine-5,4′-tetrahydropyran]-3-yl)butyl 4-(morpholine-4-carbonyl)benzoate] | < 100 | –
CCn1nc(CC(C)(C)COC(=O)c2cccc(C(=O)NC)c2)c2c1C(=O)NCC1(CCOCC1)C2 [Example 228, [3-(1-ethyl-8-oxo-spiro[6,7-dihydro-4H-pyrazolo[3,4-c]azepine-5,4′-tetrahydropyran]-3-yl)-2,2-dimethyl-propyl] 3-(methylcarbamoyl)benzoate] | < 100 | –
CCn1nc(CCCOC(=O)c2cc(OC)ccc2F)c2c1C(=O)NCC1(CCOCC1)C2 [Example 37, 3-(1-ethyl-8-oxo-spiro[6,7-dihydro-4H-pyrazolo[3,4-c]azepine-5,4′-tetrahydropyran]-3-yl)propyl 2-fluoro-5-methoxy-benzoate] | < 100 | –
CCn1nc(CC(C)(C)COC(=O)c2cnc(C)s2)c2c1C(=O)NCC1(CCOCC1)C2 [Example 311, [3-(1-ethyl-8-oxo-spiro[6,7-dihydro-4H-pyrazolo[3,4-c]azepine-5,4′-tetrahydropyran]-3-yl)-2,2-dimethyl-propyl] 2-methylthiazole-5-carboxylate] | – | < 100
CCn1nc(CC(C)(C)COC(=O)c2ccc(C(=O)N3CCN(C)CC3)cc2)c2c1C(=O)NCC1(CCOCC1)C2 [Example 224, [3-(1-ethyl-8-oxo-spiro[6,7-dihydro-4H-pyrazolo[3,4-c]azepine-5,4′-tetrahydro-pyran]-3-yl)-2,2-dimethyl-propyl] 4-(4-methyl-piperazine-1-carbonyl)-benzoate] | < 100 | –
CCn1nc(CCCOC(=O)c2cccc(S(=O)(=O)CC)c2)c2c1C(=O)NCC1(CCOCC1)C2 [Example 76, 3-(1-ethyl-8-oxo-spiro[6,7-dihydro-4H-pyrazolo[3,4-c]azepine-5,4′-tetrahydro-pyran]-3-yl)propyl 3-ethylsulfonylbenzoate] | < 100 | –
CCn1nc(CCCOC(=O)c2ccc(Cl)c(OC)c2)c2c1C(=O)NCC1(CCOCC1)C2 [Example 55, 3-(1-ethyl-8-oxo-spiro[6,7-dihydro-4H-pyrazolo[3,4-c]azepine-5,4′-tetrahydropyran]-3-yl)propyl 4-chloro-3-methoxy-benzoate] | < 100 | –
CCn1nc(C[C@@H](C)COC(=O)c2ccc(C(=O)N3CCCCC3)cc2)c2c1C(=O)NCC1(CCOCC1)C2 [Example 173, [(2R)-3-(1-ethyl-8-oxo-spiro[6,7-dihydro-4H-pyrazolo[3,4-c]azepine-5,4′-tetrahydropyran]-3-yl)-2-methyl-propyl] 4-(piperidine-1-carbonyl)benzoate] | < 100 | –
